From US20100261679A1 (priority 2007, published 2010) come the findings set out here.

Test [1] concerns the target T1, cytoplasmic domain of the human CSF-1R (Homo sapiens, UniProt P07333).
T1 construct: Recombinant protein corresponding to the cytoplasmic domain of the human CSF-1R; purchased Invitrogen Corporation, Carlsbad, Calif; U.S.A. PV3249
T1 sequence (P07333 539-972 limits assumed): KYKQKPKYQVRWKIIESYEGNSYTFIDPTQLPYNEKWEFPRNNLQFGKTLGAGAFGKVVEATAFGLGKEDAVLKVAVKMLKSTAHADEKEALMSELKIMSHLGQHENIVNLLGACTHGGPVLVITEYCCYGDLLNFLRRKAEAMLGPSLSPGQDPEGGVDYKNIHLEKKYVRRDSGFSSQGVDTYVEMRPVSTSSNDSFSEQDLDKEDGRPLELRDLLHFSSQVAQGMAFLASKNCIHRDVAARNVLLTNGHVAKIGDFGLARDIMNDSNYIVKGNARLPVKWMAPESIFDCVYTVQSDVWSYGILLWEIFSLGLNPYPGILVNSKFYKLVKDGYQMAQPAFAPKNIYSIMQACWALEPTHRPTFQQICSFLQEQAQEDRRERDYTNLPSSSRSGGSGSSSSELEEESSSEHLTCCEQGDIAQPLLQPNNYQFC
Kind of test: In vitro kinase assay for CSF-1R (AlphaScreen). Type of test: biochemical. The note with it: tested at about 1 μM. The procedure:
The kinase activity of various protein tyrosine kinases can be measured by providing ATP and a suitable peptide or protein tyrosine-containing substrate, and assaying the transfer of phosphate moiety to the tyrosine residue. Recombinant protein corresponding to the cytoplasmic domain of the human CSF-1R was purchased from Invitrogen Corporation, Carlsbad, Calif. U.S.A. (#PV3249). For each assay, test compounds were serially diluted, starting at 25 μM with 3 fold dilutions, in DMSO in 384 well plates then mixed with an appropriate kinase reaction buffer consisting of 50 mM Hepes, 5 mM MgCl2, 10 mM MnCl2, 0.1% BSA, pH 7.5, 1.0 mM dithiothreitol, 0.01% Tween 80 plus […]. Kinase protein and an appropriate biotinylated peptide substrate at 50 nM were added to give a final volume of 20 μL, reactions were incubated for 2 hours at room temperature and stopped by the addition of 10 μL of 45 mM EDTA, 50 mM Hepes pH 7.5. Added to the stopped reaction mix was 30 μL of PT66 Alphascreen beads (Perkin Elmer, Boston, Mass., U.S.A.). The reaction was incubated overnight and read on the Envision (Perkin Elmer). Phosphorylated peptide product was measured with the AlphaScreen system (Perkin Elmer) using acceptor beads coated with anti-phosphotyrosine antibody PT66 and donor beads coated with streptavidin that emit a fluorescent signal at the 520-620 nm emission wave length if in close proximity. The concentration of each compound for 50% inhibition (IC50) was calculated by non-linear regression using XL Fit data analysis software.
CSF-1R kinase was assayed in 50 mM Hepes pH 7.0, 5 mM MgCl2, 10 mM MnCl2, 1 mM DTT, 1 mg/mL BSA, 1.0 μM ATP, and 0.05 μM biotin-GGGGRPRAATF-NH2 (SEQ ID NO:2) peptide substrate. CSF-1R kinase was added at final concentration of 4 nM.

The target of a further test is T2, cKIT (Homo sapiens, UniProt P10721).
T2 construct: The kinase domain of cKIT was assayed in 50 mM Hepes; purchased Upstate 14-559
As to the kind of experiment: Inhibition of cKIT kinase in an in vitro biochemical assay (alphascreen). As to conditions: tested at about 1 μM. The procedure: (§1) The IC50 values for the inhibition of RTKs were determined in the alphascreen format measuring the inhibition by compound of phosphate transfer to a substrate by the respective enzyme. Briefly, the respective RTK domain purchased as human recombinant protein (cKIT Upstate #14-559, PDGFRb Invitrogen #P3082) were incubated with serial dilutions of compound in the presence of substrate and ATP concentrations within 3 times the Km of the enzyme.
(§2) The kinase domain of cKIT was assayed in 50 mM Hepes, pH=7.5, 5 mM MgCl2, 10 mM MnCl2, 1 mM DTT, 0.1% BSA with 0.06 uM biotinylated peptide substrate (GGLFDDPSYVNVQNL-NH2) and 15 μM ATP (ATP KM apparent =15 μM). The kinase domain of PDGFRβ was assayed in 50 mM Hepes, pH=7.5, 20 mM MgCl2, 1 mM DTT, 0.1% BSA with 0.1 μM biotinylated peptide substrate (GGLFDDPSYVNVQNL-NH2) and 10 μM ATP (ATP KM apparent=25 μM). Reactions were incubated at room temperature for 3 to 4 hr and stopped with buffer (20 mM EDTA, 0.01% Tween-20 for both PDGFRβ and cKIT). Alphascreen PY20 beads were added to the stopped cKIT reactions and PY20 Ab/Protein A Alphascreen beads were added to the PDGFRβ stopped reactions. Both reactions were incubated overnight and read on the Alphascreen reader. The concentration of compound for 50% inhibition (IC50) was calculated employing non-linear regression using XL-Fit data analysis software. As a control compound, staurosporine is run in every assay and a Z′>0.5 is required to validate results.

The next test addresses T3, PDGFRb (Homo sapiens, UniProt P09619).
T3 construct: The kinase domain of PDGFRβ was assayed in 50 mM Hepes; purchased Invitrogen P3082
As to the kind of experiment: Inhibition of PDGFRb kinase in an in vitro biochemical assay (alphascreen). The note with it: tested at about 1 μM; read-out: PDGFR % inhibition at 1 μM. The procedure: as §1, §2

Molecules are shown by their SMILES.

T3 sequence (P09619 600-962 limits assumed): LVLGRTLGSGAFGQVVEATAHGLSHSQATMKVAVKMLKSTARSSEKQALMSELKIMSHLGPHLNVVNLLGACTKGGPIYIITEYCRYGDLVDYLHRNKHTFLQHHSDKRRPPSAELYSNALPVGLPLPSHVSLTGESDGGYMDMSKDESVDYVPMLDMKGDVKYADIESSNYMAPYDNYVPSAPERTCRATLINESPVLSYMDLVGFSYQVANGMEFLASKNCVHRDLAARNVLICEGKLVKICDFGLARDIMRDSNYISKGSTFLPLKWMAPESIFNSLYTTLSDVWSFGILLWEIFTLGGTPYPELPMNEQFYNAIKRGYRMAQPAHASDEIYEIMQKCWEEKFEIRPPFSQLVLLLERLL
T2 sequence (P10721 589-937 limits assumed): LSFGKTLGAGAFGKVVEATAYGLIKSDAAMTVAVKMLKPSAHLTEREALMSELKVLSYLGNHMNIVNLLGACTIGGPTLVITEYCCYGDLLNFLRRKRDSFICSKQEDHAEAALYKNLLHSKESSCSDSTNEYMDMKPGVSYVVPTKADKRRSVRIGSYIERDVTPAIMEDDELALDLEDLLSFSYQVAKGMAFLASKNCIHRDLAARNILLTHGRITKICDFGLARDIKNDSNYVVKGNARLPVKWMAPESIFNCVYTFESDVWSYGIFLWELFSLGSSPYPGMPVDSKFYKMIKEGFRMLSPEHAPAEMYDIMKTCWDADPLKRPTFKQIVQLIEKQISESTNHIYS

Turning to `CNC(=O)c1cc(Oc2ccc3nc(Nc4ccccc4OC)ncc3c2)ccn1` [Example 44, 4-(2-(2-methoxyphenylamino)quinazolin-6-yloxy)-N-methylpicolinamide], the values for the inhibition at 1 µM (in test [1]; against cKIT; at PDGFRb) were 99%, 44% and 3%, respectively.

Regarding `CNC(=O)c1cc(Oc2ccc3nc(N[C@@H]4CCCC[C@H]4O)[nH]c3c2)ccn1` [Example 82, 4-(2-((1R,2R)-2-hydroxycyclohexylamino)-1H-benzo[d]imidazol-6-yloxy)-N-methylpicolinamide], the inhibition at 1 µM stood at 99% in test [1], 30% against cKIT and 30% on PDGFRb.

On to `CNC(=O)c1cc(Oc2ccc3nc(Nc4ccccc4OC(C)C)ncc3c2)ccn1` [Example 46, 4-(2-(2-isopropoxyphenylamino)quinazolin-6-yloxy)-N-methylpicolinamide], for which the inhibition at 1 µM is 100% in test [1], 27% on cKIT and 17% on PDGFRb.

Take `CCNC(=O)c1cc(Oc2ccc3nc(Nc4ccccc4N4CCOCC4)ncc3c2)ccn1` [Example 34, N-ethyl-4-(2-(2-morpholinophenylamino)quinazolin-6-yloxy)picolinamide]: the results for the inhibition at 1 µM (in test [1]; against cKIT; at PDGFRb) were 80%, 14% and 2%, respectively.

`CNC(=O)c1cc(Oc2ccc3nc(N[C@H]4CCCC[C@@H]4O)ccc3c2)ccn1` [Example 2]: the inhibition at 1 µM in test [1] came to 100%; on cKIT it was 21%; at PDGFRb, 32%.

Regarding `CNC(=O)c1cc(Oc2ccc3nc(Nc4ccccc4OCCO)ncc3c2)ccn1` [Example 70, 4-(2-(2-(2-hydroxyethoxy)phenylamino)quinazolin-6-yloxy)-N-methylpicolinamide], the inhibition at 1 µM in test [1] was determined as 95%; against cKIT, 11%; on PDGFRb, 13%.

Regarding `c1ccc(N2CCOCC2)c(Nc2ncc3cc(Oc4ccncc4)ccc3n2)c1` [Cmpd 28, N-(2-morpholinophenyl)-6-(pyridin-4-yloxy)quinazolin-2-amine], the inhibition at 1 µM is 52% in test [1], 8% on cKIT and below 1% on PDGFRb.

Turning to `CNC(=O)c1cc(Oc2ccc3nc(NC(=O)NC4CCCCC4)ncc3c2)ccn1` [Example 60, 4-(2-(3-cyclohexylureido)quinazolin-6-yloxy)-N-methylpicolinamide], the results for the inhibition at 1 µM (in test [1]; on cKIT; on PDGFRb) were 97%, 17% and 12%, respectively.

Consider `Cn1cc(-c2cc(Oc3ccc4nc(NCC5CCCCC5)ncc4c3)ccn2)cn1` [Cmpd 21, N-(cyclohexylmethyl)-6-(2-(1-methyl-1H-pyrazol-4-yl)pyridin-4-yloxy)quinazolin-2-amine], for which the inhibition at 1 µM in test [1] is 100%; against cKIT, 100%; at PDGFRb it was 91%.

For the molecule `CNC(=O)c1cc(Oc2ccc3nc(N[C@@H]4c5ccccc5C[C@@H]4O)ncc3c2)ccn1` [Cmpd 19, 4-(2-((1R,2S)-2-hydroxy-2,3-dihydro-1H-inden-1-ylamino)quinazolin-6-yloxy)-N-methylpicolinamide], the inhibition at 1 µM in test [1] was 100%; on cKIT, 30%; on PDGFRb, 3%.

For `CNC(=O)c1cc(Oc2ccc3nc(NC(=O)c4ccccc4)ncc3c2)ccn1` [Example 72, 4-(2-benzamidoquinazolin-6-yloxy)-N-methylpicolinamide], the values for the inhibition at 1 µM (in test [1]; against cKIT; at PDGFRb) were 98%, 13% and 43%, respectively.

Take `NC(=O)c1cc(Oc2ccc3nc(Nc4ccccc4N4CCOCC4)ncc3c2)ccn1` [Example 33, 4-(2-(2-morpholinophenylamino)quinazolin-6-yloxy)picolinamide]: the inhibition at 1 µM in test [1] was 84%; at cKIT, 14%; on PDGFRb it was below 1%.

Turning to `CNC(=O)c1cc(Oc2ccc3nc(NC4CCOCC4)ncc3c2)ccn1` [Example 58, N-methyl-4-(2-(tetrahydro-2H-pyran-4-ylamino)quinazolin-6-yloxy)picolinamide], the inhibition at 1 µM is 65% in test [1], 8% against cKIT and below 1% on PDGFRb.

For `CNC(=O)c1cc(Oc2ccc3nc(N[C@@H](CO)C4CCCCC4)ccc3c2)ccn1` [Example 7], the inhibition at 1 µM turned out to be 98% in test [1], 31% against cKIT and 16% at PDGFRb.

For `CNC(=O)c1cc(Oc2ccc3nc(N[C@@H]4CCCC[C@H]4O)ncc3c2)ccn1` [Example 11], the results for the inhibition at 1 µM (in test [1]; on cKIT; on PDGFRb) were 99%, 23% and 21%, respectively.

`CNC(=O)c1cc(Oc2ccc3nc(N[C@@H]4CCCC[C@H]4O)ccc3c2)ccn1` [Example 1]: the inhibition at 1 µM in test [1] was 100%; at cKIT, 51%; on PDGFRb it was 33%.

For `CNC(=O)c1cc(Oc2ccc3nc(NC(C)c4nccs4)ncc3c2)ccn1` (stereo not drawn) [Example 48, N-methyl-4-(2-(1-(thiazol-2-yl)ethylamino)quinazolin-6-yloxy)picolinamide], the inhibition at 1 µM is 98% in test [1], 18% on cKIT and 15% at PDGFRb.

As for `CNC(=O)c1cc(Oc2ccc3nc(NC(=O)C4CCCCC4)ncc3c2)ccn1` [Example 59, 4-(2-(cyclohexanecarboxamido)quinazolin-6-yloxy)-N-methylpicolinamide], the inhibition at 1 µM in test [1] was found to be 99%; against cKIT, 13%; on PDGFRb, 13%.

As for `CNC(=O)c1cc(Oc2ccc3nc(NC4CCCCC4)ncc3c2)ccn1` [Example 74, 4-(2-(cyclohexylamino)quinazolin-6-yloxy)-N-methylpicolinamide], the figures for the inhibition at 1 µM (in test [1]; at cKIT; at PDGFRb) were 100%, 18% and below 1%, respectively.

`CC(=O)Nc1cc(Oc2ccc3nc(Nc4ccccc4N4CCOCC4)ncc3c2)ccn1` [Example 32, N-(4-(2-(2-morpholinophenylamino)quinazolin-6-yloxy)pyridin-2-yl)acetamide]: the inhibition at 1 µM in test [1] is 99%; at cKIT it was 7%; at PDGFRb it was below 1%.

For the molecule `CNC(=O)c1cc(Oc2ccc3nc(N[C@H]4c5ccccc5C[C@H]4O)ncc3c2)ccn1` [Cmpd 20, 4-(2-((1S,2R)-2-hydroxy-2,3-dihydro-1H-inden-1-ylamino)quinazolin-6-yloxy)-N-methylpicolinamide], the inhibition at 1 µM in test [1] was 100%; against cKIT, 60%; on PDGFRb, 25%.
